{"source": "patent US20160214958A1", "about": "“COMPOUNDS AND USE FOR TREATING CANCER” (GLIONOVA AB, priority 2013, published 2016)", "key": {"[1]": {"tested_on": "U3013M GSCs intracranial tumor", "assay": "Mouse xenograft experiment, intracranial infusion by osmotic minipump", "format": "in vivo, Nod/SCID mice", "conditions": "15 μM, 0.5 μL/hr, one week, started 6 weeks after grafting, vs vehicle", "procedure": "The ability of S10 to attenuate tumor progression was next examined in a mouse model for human GBM. Nod/SCID mice received intracranial injections of 100 000 U3013M GSCs and the resulting tumor was allowed to develop for 7 weeks. […] Tumors were highly immunoreactive for human Nestin (hNestin) and human GFAP (hGFAP). S10 (15 μM, 0.5 μL/hr) or vehicle (DMSO) was administered into the site of original cell deposit by an osmotic minipump 6 weeks after cells were grafted. Animals were collected for histological analysis following one week of treatment. […] A massive LAMP1 staining was observed within the tumor cell mass following one week S10 administration, with most or all cells displaying immunoreactivity while mice receiving vehicle were devoid of LAMP1.\nGSCs were dissociated with trypsin, resuspended in PBS and kept on ice and the viability of cells were checked using trypan blue before and after the experiment. Surgery in mice was performed using sterile techniques, 6 to 8 week old NOD-SCID mice were anaesthetized using a mixture of isoflurane and oxygen. […] The mice were monitored for weight loss and signs of distress. […]"}, "[2]": {"tested_on": "histone H3 trimethylation at lysine 27 (H3K27me3)", "assay": "Western blot of GSC for H3K27me3", "format": "cell-based, human", "conditions": "GSC treated for 5 min to 26 hours", "procedure": "Cell extracts were immunoblotted for phosphor-MKK4 (P-MKK4) and histone H3 trimethylation at lysine 27 (H3K27me3).\nWhole-cell extracts were prepared in SDS-buffer (25 mM Tris-HCl, pH 7.5, 1 mM EDTA, protease inhibitor cocktail (Roche), and phosphatase inhibitors [2 mM sodium orthovanadate, 20 mM beta-glycerolphosphate], and 1% SDS). The samples were analysed by western blot as described previously (Aranda et al. (2008) Mol Cell Biol, 28, 5899-5911) with the following antibodies: anti-Histone H3 (Abcam), antitrimethyl(Lys27)-Histone H3 (Millipore) and anti-phospho(S257/Thr261)-SEK1/MKK4 (R&D Systems)."}, "human fibroblasts": {"tested_on": "human fibroblasts", "assay": "Viability (ATP) of fibroblasts in presence of S10", "format": "cell-based", "conditions": "Fibroblast", "procedure": "The ability of Examples S1-S23 to selectively induce cytotoxicity in glioma/glioblastoma cancer cells or glioma/glioblastoma cancer stem cells was determined by quantification of ATP production in glioma stem cell line U3013 in the presence of using CellTiterGlo reagent (Promega). Cells were exposed to compound in serial dilution in the range 1 nM to 50 µM for 24 hours and viability assessed with respect to negative control (dmso, no cell death) and positive control (staurosporine, full cell death). […] The EC50 of S10 remained largely similar at 2, 3 and 4 days of incubation. […] The individual isomers (S21-S23) of racemic S10 were evaluated in order to determine the enantiospecific pharmacology of the individual isomers.\nFor measuring cell viability, cytotoxicity and apoptosis in GSC/fibroblast/mGlia cells were grown in 384-well microtiter plates using procedure described above. […] Cell viability, cytotoxcity and apoptosis were measured using CellTiter-Glo® Luminescent Cell Viability Assay (Promega), CytoTox-Glo Cytotoxicity Assay and […], according to manufacturer's instructions. […] Luminescence was measured using a Victor3 FA (Perkin Elmer) microtiterplate reader and the level of released Caspase 3/7 quantified relative to control using GraphPad Prism (v6.02) software."}}}
{"compound": "OC(c1cc(-c2ccc(Cl)cc2)nc2ccccc12)C1CCCCN1", "note": "(racemic) [Compound S10, (2-(4-chlorophenyl)quinolin-4-yl)(piperidin-2-yl)methanol]", "values": [{"measurement": "loss of brain tissue by necrosis", "setting": "[1]", "value": "markedly and significantly reduced"}, {"measurement": "tumor infiltration and area of hGFAP and hNestin immunoreactivity", "setting": "[1]", "value": "significantly reduced"}, {"measurement": "effect on H3K27me3", "setting": "[2]", "value": "lack of inhibition effects"}, {"measurement": "EC50", "setting": "human fibroblasts; after 24 hrs", "value": 18.7, "unit": "µM"}, {"measurement": "EC50", "setting": "human fibroblasts; at 96 hours", "value": 23, "unit": "µM"}]}
